These results are taken from patent US9540343B2 (Gilead Sciences, Inc., priority 2011, dated 2017).

One data set is described as follows: in vitro. The conditions noted are these: human, uninfected MT-4 cells, CC50 (nM), same protocol as Test A, CellTiter-Glo. In outline:
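Cytoprotection read-out: CellTiter-Glo chemiluminescence after 5 days at 37 °C of HIV-IIIb-infected MT-4 cells (m.o.i. 0.003) with compound in 10-point 3-fold dilutions, quadruplicate, 10% FBS. Cytotoxicity (CC50) measured identically without virus.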

The next data set concerns HIV-IIIb. As to the kind of experiment: Test A: Antiviral assay in MT4 cells. In kind it is cell-based, HIV-1. The conditions noted are these: Human immunodeficiency virus 1, IIIB, MT4, 120 h, read-out: % inhibition at 2 μM, percent inhibition of virus-induced cell killing, from dose response curve at 2 uM drug; MT-4 cells infected with HIV-IIIb, 5 days, CellTiter-Glo. For orientation: Cellular ATP, detected with luciferase, serves as a proxy for viable cell number.

Some results are limits rather than exact numbers.

`CNc1ccc(-c2cccnc2[C@H](Cc2cc(F)cc(F)c2)NC(=O)Cn2nc(C(F)F)c3c2C(F)(F)CCC3(F)F)cn1` [Example 287E, (S)-2-(3-(difluoromethyl)-4,4,7,7-tetrafluoro-4,5,6,7-tetrahydro-1H-indazol-1-yl)-N-(2-(3,5-difluorophenyl)-1-(6′-(methylamino)-3,3′-bipyridin-2-yl)ethyl)acetamide] yielded a CC50 at 5 days in “in vitro” of 16000 nM. For the same compound, the inhibition at 2 µM in the data set with HIV-IIIb is 98%.

On to `O=C(Cn1nc(C(F)F)c2c1C(F)(F)CCC2(F)F)N[C@@H](Cc1cc(F)cc(F)c1)c1ncncc1-c1cnc2[nH]ccc2c1` [Example 288, (S)—N-(1-(5-(1H-pyrrolo[2,3-b]pyridin-5-yl)pyrimidin-4-yl)-2-(3,5-difluorophenyl)ethyl)-2-(3-(difluoromethyl)-4,4,7,7-tetrafluoro-4,5,6,7-tetrahydro-1H-indazol-1-yl)acetamide], for which the midpoint of cytotoxicity in “in vitro”, the CC50 at 5 days, lay at 16400 nM. Further, the inhibition at 2 µM with HIV-IIIb was 108%.

In turn, `CCOC(=O)c1cn(CC(=O)N[C@@H](Cc2cc(F)cc(F)c2)c2ncccc2-c2ccc(F)c(C(N)=O)c2)nc1C(F)(F)F` [Example 289, (S)-ethyl 1-(2-(1-(3-(3-carbamoyl-4-fluorophenyl)pyridin-2-yl)-2-(3,5-difluorophenyl)ethylamino)-2-oxoethyl)-3-(trifluoromethyl)-1H-pyrazole-4-carboxylate] yielded a CC50 at 5 days in “in vitro” of 26400 nM. Also, the inhibition at 2 µM with HIV-IIIb stood at 2%.

Consider `CCc1c(-c2ccccc2)c(C(F)(F)F)nn1CC(=O)N[C@@H](Cc1cc(F)cc(F)c1)c1ncccc1-c1ccc(F)c(C(N)=O)c1` [Example 290, (S)-5-(2-(2-(3,5-difluorophenyl)-1-(2-(5-ethyl-4-phenyl-3-(trifluoromethyl)-1H-pyrazol-1-yl)acetamido)ethyl)pyridin-3-yl)-2-fluorobenzamide], for which the CC50 at 5 days in the data set “in vitro” stood at 11500 nM. Also, in the data set with HIV-IIIb, the inhibition at 2 µM worked out at 4%.

As for `Cc1c(C2CC2)c(C(F)(F)F)nn1CC(=O)N[C@@H](Cc1cc(F)cc(F)c1)c1ncccc1-c1ccc(F)c(C(N)=O)c1` [Example 291, (S)-5-(2-(1-(2-(4-cyclopropyl-5-methyl-3-(trifluoromethyl)-1H-pyrazol-1-yl)acetamido)-2-(3,5-difluorophenyl)ethyl)pyridin-3-yl)-2-fluorobenzamide], the midpoint of cytotoxicity in the data set “in vitro”, the CC50 at 5 days, lay at 16500 nM. The inhibition at 2 µM with HIV-IIIb stood at 86%.

As to `NC(=O)c1cc(-c2cccnc2[C@H](Cc2cc(F)cc(F)c2)NC(=O)Cn2cc(CO)c(C(F)(F)F)n2)ccc1F` [Example 292, (S)-5-(2-(2-(3,5-difluorophenyl)-1-(2-(4-(hydroxymethyl)-3-(trifluoromethyl)-1H-pyrazol-1-yl)acetamido)ethyl)pyridin-3-yl)-2-fluorobenzamide], the CC50 at 5 days in “in vitro” was over 53200 nM. Moreover, the inhibition at 2 µM in the data set with HIV-IIIb was determined as 1%.

In “in vitro”, `O=C(Cc1c[nH]c2ccc(F)cc12)N[C@H](Cc1cc(F)cc(F)c1)c1ncncc1-c1ccc(Cl)cc1` [Example 293, (R)—N-(1-(5-(4-chlorophenyl)pyrimidin-4-yl)-2-(3,5-difluorophenyl)ethyl)-2-(5-fluoro-1H-indol-3-yl)acetamide] gave a CC50 at 5 days of 11200 nM. In addition, in the data set on HIV-IIIb, the inhibition at 2 µM was 44%.

In turn, `NC(=O)c1cc(-c2cccnc2[C@H](Cc2cc(F)cc(F)c2)NC(=O)Cc2c[nH]c3ccc(F)cc23)ccn1` [Example 294, (S)-2-(2-(3,5-difluorophenyl)-1-(2-(5-fluoro-1H-indol-3-yl)acetamido)ethyl)-3,4′-bipyridine-2′-carboxamide] registered a CC50 at 5 days in “in vitro” of 20500 nM. The inhibition at 2 µM with HIV-IIIb was determined as 114%.

Consider `NS(=O)(=O)c1cccc(-c2cncnc2[C@H](Cc2cc(F)cc(F)c2)NC(=O)Cc2c[nH]c3ccc(O)cc23)c1` [Example 295B, (S)—N-(2-(3,5-difluorophenyl)-1-(5-(3-sulfamoylphenyl)pyrimidin-4-yl)ethyl)-2-(5-hydroxy-1H-indol-3-yl)acetamide], for which, in the data set “in vitro”, the CC50 at 5 days was over 53200 nM. In addition, in the data set on HIV-IIIb, the inhibition at 2 µM came out at 99%.

In turn, `NC(=O)c1cc(-c2cccnc2[C@H](Cc2cc(F)cc(F)c2)NC(=O)Cn2cc(C=O)c(C(F)(F)F)n2)ccc1F` [Example 296, (S)-5-(2-(2-(3,5-difluorophenyl)-1-(2-(4-formyl-3-(trifluoromethyl)-1H-pyrazol-1-yl)acetamido)ethyl)pyridin-3-yl)-2-fluorobenzamide] returned a CC50 at 5 days in “in vitro” of 10800 nM. In addition, the inhibition at 2 µM in the data set with HIV-IIIb was found to be 96%.

Compound `C=Cc1cn(CC(=O)N[C@@H](Cc2cc(F)cc(F)c2)c2ncccc2-c2ccc(F)c(C(N)=O)c2)nc1C(F)(F)F` [Example 297, (S)-5-(2-(2-(3,5-difluorophenyl)-1-(2-(3-(trifluoromethyl)-4-vinyl-1H-pyrazol-1-yl)acetamido)ethyl)pyridin-3-yl)-2-fluorobenzamide] registered a CC50 at 5 days in “in vitro” of 23300 nM. Also, the inhibition at 2 µM in the data set on HIV-IIIb came to 14%.

In the data set “in vitro”, `NC(=O)c1cccc(-c2cccnc2[C@H](Cc2cc(F)cc(F)c2)NC(=O)Cn2ccc3ccc(=O)[nH]c32)c1` [Example 298C, (S)-3-(2-(2-(3,5-difluorophenyl)-1-(2-(6-oxo-6,7-dihydro-1H-pyrrolo[2,3-b]pyridin-1-yl)acetamido)ethyl)pyridin-3-yl)benzamide] showed a CC50 at 5 days of over 53000 nM. Moreover, the inhibition at 2 µM in the data set on HIV-IIIb came to 61%.

In the case of `O=C(Cn1nc(C(F)F)c2c1C1CC1CC2)NC(Cc1cc(F)cc(F)c1)c1ncncc1-c1cnc2[nH]ccc2c1` (centres unmarked) [Example 299D, N-(1-(5-(1H-pyrrolo[2,3-b]pyridin-5-yl)pyrimidin-4-yl)-2-(3,5-difluorophenyl)ethyl)-2-(3-(difluoromethyl)-5,5a,6,6a-tetrahydrocyclopropa[g]indazol-1(4H)-yl)acetamide], in “in vitro”, the CC50 at 5 days was 19500 nM. For the same compound, the inhibition at 2 µM in the data set on HIV-IIIb was 100%.

Consider `CN(C)Cc1cn(CC(=O)N[C@@H](Cc2cc(F)cc(F)c2)c2ncccc2-c2ccc(F)c(C(N)=O)c2)nc1C(F)(F)F` [Example 300, (S)-5-(2-(2-(3,5-difluorophenyl)-1-(2-(4-((dimethylamino)methyl)-3-(trifluoromethyl)-1H-pyrazol-1-yl)acetamido)ethyl)pyridin-3-yl)-2-fluorobenzamide], for which the CC50 at 5 days in “in vitro” was over 53200 nM. Further, the inhibition at 2 µM in the data set on HIV-IIIb was 0%.

Consider `O=C(Cn1nc(C(F)(F)F)c2c1CCCC2)N[C@@H](Cc1cc(F)cc(F)c1)c1nc[nH]c(=O)c1-c1ccc(Cl)cc1` [Example 301B, (S)—N-(1-(5-(4-chlorophenyl)-6-oxo-1,6-dihydropyrimidin-4-yl)-2-(3,5-difluorophenyl)ethyl)-2-(3-(trifluoromethyl)-4,5,6,7-tetrahydro-1H-indazol-1-yl)acetamide], for which half-maximal cytotoxicity in the data set “in vitro” (CC50 at 5 days) was put at 5650 nM. Further, the inhibition at 2 µM in the data set with HIV-IIIb was found to be 0%.

In “in vitro”, `O=C(Cc1c[nH]c2ccc(F)cc12)N[C@@H](Cc1cc(F)cc(F)c1)c1ncccc1-c1ccnc(-c2nn[nH]n2)c1` [Example 302, (S)—N-(1-(2′-(2H-tetrazol-5-yl)-3,4′-bipyridin-2-yl)-2-(3,5-difluorophenyl)ethyl)-2-(5-fluoro-1H-indol-3-yl)acetamide] had a CC50 at 5 days of 16800 nM. Further, the inhibition at 2 µM in the data set on HIV-IIIb was 0%.

Consider `NC(=O)c1cc(-c2cccnc2[C@H](Cc2cc(F)cc(F)c2)NC(=O)Cn2nc(C(F)(F)F)c3c2CCNC3)ccc1F` [Example 303, (S)-5-(2-(2-(3,5-difluorophenyl)-1-(2-(3-(trifluoromethyl)-4,5,6,7-tetrahydro-1H-pyrazolo[4,3-c]pyridin-1-yl)acetamido)ethyl)pyridin-3-yl)-2-fluorobenzamide], for which the CC50 at 5 days in “in vitro” worked out at 35500 nM. Further, the inhibition at 2 µM in the data set on HIV-IIIb came to 14%.

For the compound `NC(=O)c1cc(-c2cccnc2[C@H](Cc2cc(F)cc(F)c2)NC(=O)Cn2nc(C(F)F)c3c2C2CC2CC3(F)F)ccc1F` (stereo partly drawn) [Example 304C, 5-(2-((1S)-1-(2-(3-(difluoromethyl)-4,4-difluoro-5,5a,6,6a-tetrahydrocyclopropa[g]indazol-1(4H)-yl)acetamido)-2-(3,5-difluorophenyl)ethyl)pyridin-3-yl)-2-fluorobenzamide], the midpoint of cytotoxicity in “in vitro”, the CC50 at 5 days, lay at 1700 nM. Besides, in the data set with HIV-IIIb, the inhibition at 2 µM stood at 94%.

For the compound `NC(=O)c1cc(-c2cccnc2[C@H](Cc2cc(F)cc(F)c2)NC(=O)Cn2cc(CN3CCOCC3)c(C(F)(F)F)n2)ccc1F` [Example 305, (S)-5-(2-(2-(3,5-difluorophenyl)-1-(2-(4-(morpholinomethyl)-3-(trifluoromethyl)-1H-pyrazol-1-yl)acetamido)ethyl)pyridin-3-yl)-2-fluorobenzamide], in the data set “in vitro”, the CC50 at 5 days was over 53200 nM. In addition, in the data set on HIV-IIIb, the inhibition at 2 µM stood at 0%.

Regarding `Cc1nn(CC(=O)N[C@@H](Cc2cc(F)cc(F)c2)c2ncccc2-c2cccc(C(N)=O)c2)c2cc(O)ccc12` [Example 306C, (S)-3-(2-(2-(3,5-difluorophenyl)-1-(2-(6-hydroxy-3-methyl-1H-indazol-1-yl)acetamido)ethyl)pyridin-3-yl)benzamide], the CC50 at 5 days in “in vitro” came to 41600 nM. The inhibition at 2 µM in the data set with HIV-IIIb amounted to 10%.

Regarding `NC(=O)c1cc(-c2cccnc2[C@H](Cc2cc(F)cc(F)c2)NC(=O)Cn2nc(C(F)F)c3c2CCCC3)ccc1F` [Example 307, (S)-5-(2-(1-(2-(3-(difluoromethyl)-4,5,6,7-tetrahydro-1H-indazol-1-yl)acetamido)-2-(3,5-difluorophenyl)ethyl)pyridin-3-yl)-2-fluorobenzamide], the CC50 at 5 days in the data set “in vitro” was 26700 nM. In addition, in the data set with HIV-IIIb, the inhibition at 2 µM amounted to 99%.

`NC(=O)c1cc(-c2cncnc2[C@H](Cc2cc(F)cc(F)c2)NC(=O)Cn2nc(C(F)F)c3c2C(F)(F)CCC3(F)F)ccc1F` [Example 308, (S)-5-(4-(1-(2-(3-(difluoromethyl)-4,4,7,7-tetrafluoro-4,5,6,7-tetrahydro-1H-indazol-1-yl)acetamido)-2-(3,5-difluorophenyl)ethyl)pyrimidin-5-yl)-2-fluorobenzamide] displayed a CC50 at 5 days in the data set “in vitro” of 39800 nM. In addition, in the data set on HIV-IIIb, the inhibition at 2 µM was 102%.

As a reminder, the CC50 is the concentration that lowers cell viability or growth by half. A high value points to lower toxicity to the cells. In general, inhibition refers to the drop in the measured response relative to a control, in per cent.
